The results in this text go back to ChEMBL document CHEMBL1146971, “Discovery of novel heterocyclic factor VIIa inhibitors” (Bioorg Med Chem Lett, 2006).

Assay [1] addresses T1, Coagulation factor VII (Homo sapiens, UniProt P08709).
T1 sequence (P08709 whole entry): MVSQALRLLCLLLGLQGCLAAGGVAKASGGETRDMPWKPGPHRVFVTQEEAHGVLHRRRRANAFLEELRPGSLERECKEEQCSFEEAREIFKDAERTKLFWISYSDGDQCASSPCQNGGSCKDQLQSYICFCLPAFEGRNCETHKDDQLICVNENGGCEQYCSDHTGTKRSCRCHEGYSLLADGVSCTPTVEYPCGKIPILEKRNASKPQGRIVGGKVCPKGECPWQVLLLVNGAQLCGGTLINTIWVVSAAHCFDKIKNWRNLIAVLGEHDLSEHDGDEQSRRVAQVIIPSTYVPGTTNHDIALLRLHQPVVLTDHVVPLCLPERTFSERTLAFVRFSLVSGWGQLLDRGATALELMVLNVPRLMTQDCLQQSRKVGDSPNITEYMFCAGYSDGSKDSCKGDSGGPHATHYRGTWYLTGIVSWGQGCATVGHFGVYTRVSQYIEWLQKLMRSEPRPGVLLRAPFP
In words: Binding affinity to f7a.

For assay [2], the species on record is Homo sapiens. The assay is described as follows: Selectivity for f7a over trypsin.
Assay [3] has as its target Coagulation factor X (Homo sapiens, UniProt P00742). In words: Binding affinity to f10a.
Assay [4] has as its target Prothrombin (Homo sapiens, UniProt P00734). The assay is described as follows: Binding affinity to thrombin.
Assay [5] addresses Trypsin (Homo sapiens, UniProt P07477+P07478+P35030). The assay is described as follows: Binding affinity to trypsin. Type of assay: protein assay.

Bounds are passed on as bounds.

Coagulation factor X, sequence (P00742 41-179 limits assumed): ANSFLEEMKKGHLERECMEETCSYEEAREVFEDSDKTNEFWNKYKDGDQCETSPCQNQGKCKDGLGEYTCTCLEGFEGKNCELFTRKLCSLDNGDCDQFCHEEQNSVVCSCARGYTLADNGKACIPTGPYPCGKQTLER
Coagulation factor X, sequence (P00742 235-488 limits assumed): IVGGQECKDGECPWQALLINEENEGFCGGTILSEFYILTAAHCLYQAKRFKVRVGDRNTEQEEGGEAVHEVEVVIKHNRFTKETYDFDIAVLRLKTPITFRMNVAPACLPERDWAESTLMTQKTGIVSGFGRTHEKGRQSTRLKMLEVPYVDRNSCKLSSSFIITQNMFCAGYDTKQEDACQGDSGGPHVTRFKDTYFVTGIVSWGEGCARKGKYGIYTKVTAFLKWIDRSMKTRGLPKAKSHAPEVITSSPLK

As usually defined, the Ki is the equilibrium dissociation constant of an inhibitor or competing ligand from its target. Read a high Ki as a looser hold on the target. Regarding `CS(=O)(=O)c1cccc(-c2cc(CC(=O)O)cc(-c3cc4[nH]c(N)ccc-4n3)c2O)c1`, in assay [1], the inhibition constant Ki stood at 7.4 µM. Also, the Selectivity ratio in assay [2] turned out to be 16.

`CN(C)CCNC(=O)NCc1cccc(-c2cc(CC(=O)O)cc(-c3cc4[nH]c(N)ccc-4n3)c2O)c1` gave a Ki in assay [1] of 1.4 µM. In assay [2], the Selectivity ratio was more than 100.

For `N=C(N)c1ccc2[nH]c(-c3cc(CC(=O)O)cc(-c4cccc([N+](=O)[O-])c4)c3O)nc2c1`, the inhibitory constant (Ki) in assay [3] was 0.32 µM; in assay [4], more than 150 µM; in assay [5], 11 µM.

`N=C(N)c1ccc2[nH]c(-c3cc(CC(=O)O)cc(-c4cccc([N+](=O)[O-])c4)c3O)cc2c1`: the Ki is 0.004 µM in assay [1], 0.05 µM in assay [3], 2.9 µM in assay [4] and 0.4 µM in assay [5].

Turning to `Nc1ccc2[nH]c(-c3cc(CC(=O)O)cc(-c4cccc([N+](=O)[O-])c4)c3O)nc2n1`, the Ki in assay [1] is 39 µM; in assay [3], more than 150 µM; in assay [4] it was more than 150 µM; in assay [5], more than 150 µM.

In assay [1], `NC(=O)Nc1cccc(-c2cc(CC(=O)O)cc(-c3cc4[nH]c(N)ccc-4n3)c2O)c1` gave a Ki of 12 µM. The Selectivity ratio in assay [2] was more than 13.

Turning to `Nc1ccc2[nH]c(-c3cc(CC(=O)O)cc(-c4cccc([N+](=O)[O-])c4)c3O)cc2n1`, the inhibition constant (Ki) in assay [3] came out at 3.5 µM; in assay [4] it was 44 µM; in assay [5] it was 120 µM. Moreover, the Selectivity ratio in assay [2] worked out at 400.

`Nc1ccc2[nH]c(-c3cc(CC(=O)O)cc(-c4cccc(CNC(=O)Nc5ccccc5)c4)c3O)cc2n1` yielded an inhibitory constant (Ki) in assay [1] of 0.02 µM. Moreover, in assay [2], the Selectivity ratio was more than 7000.

`Nc1ccc2[nH]c(-c3cc(CC(=O)O)cc(-c4ccccc4)c3O)cc2n1` showed a Ki in assay [1] of 2.4 µM. In addition, the Selectivity ratio in assay [2] was 67.

As to `O=C(O)Cc1cc(-c2cccc([N+](=O)[O-])c2)c(O)c(-c2nc3ccccc3[nH]2)c1`, the Ki in assay [1] is 11 µM; in assay [3], more than 150 µM; in assay [4], more than 150 µM; in assay [5], more than 150 µM.

`Nc1ccc2[nH]c(-c3cc(CC(=O)O)cc(-c4cccc(O)c4)c3O)cc2n1` had an inhibition constant Ki in assay [1] of 2.5 µM. In assay [2], the Selectivity ratio turned out to be 84.
